SMILES strings stand for the structures. Values after ≈ are worked out from the molar mass of the structure shown. Peptide text beside a SMILES is read from it.

Format in all cases: cell-based
Assay [1] deals with Acinetobacter baumannii (ATCC 17978). Kind of assay: microbe, parasite or virus in culture. The following applies: ATCC 17978, 3 h. The gist of the method: (§1)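 Complete loss of viable bacteria after 3 h defined the MBC. Two-fold peptide series, 25 µM top concentration, ~10^7 log-phase cells in potassium-phosphate buffer pH 7.4.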
For assay [2], the system named is Escherichia coli (ATCC 8739). The following applies: ATCC 8739, 3 h. In a few lines: as §1
Assay [3] deals with Klebsiella pneumoniae (NCTC 13440). The following applies: NCTC 13440, 3 h. The gist of the method: as §1
The test system of assay [4] is Pseudomonas aeruginosa (ATCC 27853). As to conditions: ATCC 27853, 3 h. In a few lines: as §1
In assay [5] the test system is Salmonella enterica (ATCC 13076). As to conditions: ATCC 13076, 3 h. The gist of the method: as §1
For assay [6], the system named is Staphylococcus aureus (HNCMO112011). As to conditions: HNCMO112011, 3 h. In a few lines:
as §1

For assay [7], the system named is Listeria monocytogenes (ATCC 19111). As to conditions: ATCC 19111, 3 h. The gist of the method:
as §1

The subject of assay [8] is E. coli, S. enteritidis, P. aeruginosa, L. monocytogenes, S. aureus, E. faecalis, K. pneumoniae and A. baumannii. Kind of assay: Antimicrobial activity assay, spectrum over the eight tested pathogenic bacteria. The following applies: 3 h treatment of ~10^7 log phase bacteria, peptides 25 to 0.8 µM; active = MBC ≤25 µM. The gist of the method:
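MBC taken as the lowest peptide concentration leaving no viable bacteria after 3 h exposure of ~10^7 log-phase cells. Peptides tested by 2-fold serial dilution, 25 µM down to 0.8 µM, in PPB (pH 7.4). Gram-positive and Gram-negative reference strains from ATCC, NCTC and HNCMO collections.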

Assay [9] concerns Enterococcus faecalis (ATCC 29212). In a few lines:
as §1

For `CC(C)C[C@H](NC(=O)[C@H](CS)NC(=O)[C@H](CCCCN)NC(=O)CNC(=O)[C@@H](N)Cc1ccccc1)C(=O)N[C@@H](CCCCN)C(=O)N[C@@H](CC(C)C)C(=O)N[C@@H](CCCCN)C(=O)N[C@@H](CS)C(=O)N[C@H](C(=O)N[C@@H](Cc1ccc(O)cc1)C(=O)N[C@H](C(=O)N1CCC[C@H]1C(=O)N[C@@H](CCCCN)C(=O)N[C@@H](CCCNC(=N)N)C(N)=O)[C@@H](C)O)C(C)C` [GoNCR308 (16-30)] (H-FGKCLKLKCVYTPKR-NH2; N-terminus assumed), the “MBC Acinetobacter baumannii” value in assay [1] stood at 3.125 µM (≈ 5.57 µg/mL). Further, the “MBC Escherichia coli” value in [2] was 3.125 µM (≈ 5.57 µg/mL). For the same compound, in assay [3], the “MBC Klebsiella pneumoniae” value was 25 µM (≈ 44.6 µg/mL). The “MBC Pseudomonas aeruginosa” value in [4] is 3.125 µM (≈ 5.57 µg/mL). Also, the “MBC Salmonella enterica” value in assay [5] is given as 3.125 µM (≈ 5.57 µg/mL). In assay [6], the “MBC Staphylococcus aureus” value is reported as 50 µM (≈ 89.2 µg/mL).
Take `CC[C@H](C)[C@H](NC(=O)CNC(=O)[C@H](CCCNC(=N)N)NC(=O)[C@H](CCCCN)NC(=O)[C@H](CCCNC(=N)N)NC(=O)[C@@H](NC(=O)[C@H](CCCCN)NC(=O)[C@H](CS)NC(=O)[C@H](CC(C)C)NC(=O)CNC(=O)CNC(=O)[C@@H](NC(=O)[C@H](CS)NC(=O)[C@H](CCCNC(=N)N)NC(=O)[C@@H](N)Cc1c[nH]cn1)[C@@H](C)CC)C(C)C)C(=O)N[C@@H](CCCCN)C(=O)NCC(=O)N[C@@H](Cc1ccccc1)C(=O)N[C@H](C(=O)N[C@@H](CC(N)=O)C(=O)N[C@H](C(=O)N1CCC[C@H]1C(N)=O)[C@@H](C)CC)[C@@H](C)CC` [GoNCR313 (23-44)] (H-HRCIGGLCKVRKRGIKGFINIP-NH2; N-terminus assumed): the “MBC Escherichia coli” value in [2] is 3.125 µM (≈ 7.7 µg/mL). For the same compound, the “MBC Klebsiella pneumoniae” value in assay [3] came out at 12.5 µM (≈ 30.8 µg/mL). Besides, in [4], the “MBC Pseudomonas aeruginosa” value is 3.125 µM (≈ 7.7 µg/mL). The “MBC Salmonella enterica” value in assay [5] amounted to 6.25 µM (≈ 15.4 µg/mL).
With `CSCC[C@H](NC(=O)[C@H](Cc1ccccc1)NC(=O)[C@H](CCCCN)NC(=O)[C@@H]1CCCN1C(=O)[C@H](CS)NC(=O)[C@H](CCCNC(=N)N)NC(=O)CNC(=O)[C@H](CC(=O)O)NC(=O)[C@H](CCCNC(=N)N)NC(=O)CNC(=O)[C@H](CS)NC(=O)[C@H](CC(C)C)NC(=O)[C@@H](NC(=O)[C@H](CCCNC(=N)N)NC(=O)[C@@H](N)CCSC)C(C)C)C(=O)N[C@@H](CS)C(=O)N[C@@H](CCCNC(=N)N)C(=O)N[C@H](C(=O)N[C@@H](Cc1ccccc1)C(=O)N[C@@H](CC(C)C)C(=O)O)[C@@H](C)O` [NCR280] (H-MRVLCGRDGRCPKFMCRTFL-OH; N-terminus assumed), in assay [1], the “MBC Acinetobacter baumannii” value is reported as 1.6 µM (≈ 3.82 µg/mL). In assay [2], the “MBC Escherichia coli” value worked out at 3.125 µM (≈ 7.47 µg/mL). Further, the “MBC Klebsiella pneumoniae” value in assay [3] came to 25 µM (≈ 59.8 µg/mL). In assay [7], the “MBC Listeria monocytogenes” value stood at 3.125 µM (≈ 7.47 µg/mL). In addition, in [4], the “MBC Pseudomonas aeruginosa” value came out at 12.5 µM (≈ 29.9 µg/mL). Also, in assay [5], the “MBC Salmonella enterica” value was determined as 3.125 µM (≈ 7.47 µg/mL). In addition, the “Antibacterial spectrum over the eight tested bacterial strains” value in assay [8] was “active against all strains except S. aureus and E. faecalis”.
Consider `CC[C@H](C)[C@H](NC(=O)[C@H](CC(C)C)NC(=O)[C@H](CC(N)=O)NC(=O)[C@@H](NC(=O)[C@H](CS)NC(=O)[C@H](Cc1ccc(O)cc1)NC(=O)CNC(=O)[C@H](CCCCN)NC(=O)[C@H](CCCNC(=N)N)NC(=O)[C@H](CS)NC(=O)[C@H](CCCNC(=N)N)NC(=O)[C@@H](NC(=O)[C@H](CC(N)=O)NC(=O)[C@H](CCSC)NC(=O)CNC(=O)[C@H](C)NC(=O)[C@H](CCCNC(=N)N)NC(=O)[C@H](CCCNC(=N)N)NC(=O)[C@@H](NC(=O)[C@H](CS)NC(=O)[C@H](CC(=O)O)NC(=O)[C@H](CCCCN)NC(=O)[C@H](CC(=O)O)NC(=O)[C@@H](NC(=O)[C@@H](NC(=O)[C@H](CS)NC(=O)[C@@H]1CCCN1C(=O)[C@H](CC(N)=O)NC(=O)[C@@H]1CCCN1C(=O)[C@@H](NC(=O)[C@H](Cc1c[nH]cn1)NC(=O)[C@H](CO)NC(=O)[C@H](Cc1ccc(O)cc1)NC(=O)[C@@H](N)Cc1ccccc1)C(C)C)[C@@H](C)CC)[C@@H](C)O)[C@@H](C)CC)[C@@H](C)CC)C(C)C)C(=O)N[C@@H](CC(C)C)C(=O)N[C@@H](CCCNC(=N)N)C(=O)O` [NCR700] (H-FYSHVPNPCITDKDCIRRAGMNIRCRKGYCVNLILR-OH; N-terminus assumed), for which the “MBC Acinetobacter baumannii” value in [1] was 1.6 µM (≈ 6.76 µg/mL). Also, the “MBC Escherichia coli” value in assay [2] was 3.125 µM (≈ 13.2 µg/mL). Also, in assay [3], the “MBC Klebsiella pneumoniae” value is reported as 12.5 µM (≈ 52.8 µg/mL). In addition, in assay [7], the “MBC Listeria monocytogenes” value is on record as 1.6 µM (≈ 6.76 µg/mL). For the same compound, the “MBC Pseudomonas aeruginosa” value in assay [4] is 6.25 µM (≈ 26.4 µg/mL). In addition, in assay [5], the “MBC Salmonella enterica” value turned out to be 12.5 µM (≈ 52.8 µg/mL). Further, the “Antibacterial spectrum over the eight tested bacterial strains” value in assay [8] is “active against all strains except S. aureus and E. faecalis”.
As for `CC[C@H](C)[C@H](NC(=O)[C@H](CO)NC(=O)[C@@H](NC(=O)[C@H](CO)NC(=O)[C@@H]1CCCN1C(=O)[C@@H]1CCCN1C(=O)[C@H](CS)NC(=O)[C@H](CC(=O)O)NC(=O)[C@@H](NC(=O)[C@H](CC(=O)O)NC(=O)[C@@H](NC(=O)[C@H](CCCCN)NC(=O)[C@H](CS)NC(=O)[C@H](CCCCN)NC(=O)[C@@H](NC(=O)[C@H](C)NC(=O)[C@@H](NC(=O)[C@H](C)N)C(C)C)[C@@H](C)O)[C@@H](C)O)C(C)C)[C@@H](C)O)C(=O)N[C@@H](CCCNC(=N)N)C(=O)N[C@@H](CCCNC(=N)N)C(=O)N[C@@H](Cc1ccc(O)cc1)C(=O)N[C@@H](CCCCN)C(=O)N[C@@H](CS)C(=O)N[C@H](C(=O)N[C@@H](CCCCN)C(=O)N[C@@H](CC(N)=O)C(=O)N[C@@H](CCCCN)C(=O)N[C@@H](CS)C(=O)N[C@@H](CCCNC(=N)N)C(=O)N[C@@H](Cc1ccc(O)cc1)C(=O)N[C@H](C(=O)N[C@@H](CCCNC(=N)N)C(=O)N[C@@H](CC(C)C)C(=O)N[C@@H](CO)C(=O)N[C@@H](Cc1ccc(O)cc1)C(=O)NCC(N)=O)[C@@H](C)O)[C@@H](C)O` [PsNCR351] (H-AVATKCKTDVDCPPSTSIRRYKCTKNKCRYTRLSYG-NH2; N-terminus assumed), in [1], the “MBC Acinetobacter baumannii” value came out at 3.125 µM (≈ 12.9 µg/mL). The “Ability to kill E. faecalis” value in assay [9] (3 h, ~10^7 log phase bacteria, peptides ≤25 µM) is “able to kill”. Further, the “MBC Enterococcus faecalis” value in assay [9] (ATCC 29212, 3 h) is 12.5 µM (≈ 51.4 µg/mL). The “MBC Escherichia coli” value in [2] was determined as 3.125 µM (≈ 12.9 µg/mL). For the same compound, the “MBC Listeria monocytogenes” value in assay [7] is 6.25 µM (≈ 25.7 µg/mL). Moreover, in assay [4], the “MBC Pseudomonas aeruginosa” value amounted to 3.125 µM (≈ 12.9 µg/mL). For the same compound, the “MBC Salmonella enterica” value in assay [5] was 25 µM (≈ 103 µg/mL). Moreover, the “MBC Staphylococcus aureus” value in [6] came out at 6.25 µM (≈ 25.7 µg/mL).

For the origin of these results see article PMC9218685, “Legume Plant Peptides as Sources of Novel Antimicrobial Molecules Against Human Pathogens” (Frontiers in Molecular Biosciences, 2022).
